Laboratory results reported in patent US10208007B2, “Use of strigolactones and strigolactone analogs for treating proliferative conditions” (The State of Israel, Ministry of Agriculture & Rural …, priority 2011, dated 2019).

Columns and labels:
pAKT = assay: Immunoblot with densitometric quantification; assay type: cell-based, human
Method: Protein concentration was determined using the BCA Protein Assay (Pierce), and 20-50 μg of lysate were separated in a 4-12% SDS-PAGE gel. After transfer, membranes were blocked for 15-30 min at room temperature in 5% BSA (Sigma) in Tris-buffered saline containing 0.1% Tween-20. Primary antibody was incubated for either 1.5 hours at room temperature or overnight at 4° C. Secondary antibody was incubated for 30-45 min at room temperature, and proteins were visualized with West Pico Stable (Pierce). All antibodies were used at 1:1000 dilution unless otherwise stated. pT308AKT, AKT, pT180/Y182, pT183/Y185 P38MAPK, pP38MAPK, pT202/Y204 pERK1/2, ERK1, pT183/Y185, pJNK1/2, JNK1, pT71ATF2, pT581MSK1, pT14 Cdc2, Cdc2, pT68Chk2 (cell signaling), pT334MAPKAPK, pS82HSP27 (Cell Signaling Technology, Danvers, Mass.), α-tubulin (Biomarkers, 1:50,000), Cyclin B1 (Santa Cruz Biotechnologies) and horseradish peroxidase-conjugated anti-rabbit IgG and anti-mouse IgG (1:5,000, Pierce).
Densitometric quantifications were carried out using ImageJ software (NIMH).
[…] The family of MAPK enzymes plays a pivotal role in cell growth, survival and cellular stress responses. […]

GRIM REAPER (GRI) = assay: Gene transcription level by quantitative PCR: GRI; assay type: in vivo, Arabidopsis thaliana
Method: Seeds of homozygous lines of Arabidopsis thaliana wild type (WT; Columbia; Col-0) and max2-1 mutant (http://abrc.osu.edu/) were surface-sterilized and germinated on 1/2 Murashige and Skoog (MS) plates supplemented with 1% sucrose and solidified with 0.7% agar. Plates were incubated vertically in the dark at 4° C. for two days to synchronize germination. Three days after germination, seedlings were gently transferred using forceps to 1/2 MS plates containing various concentrations of GR-24 as a mixture of four diastereomers: (±)-GR-24 and (±)-2'-epi-GR-24. The root tip of the transferred seedling was marked on the plates. The plates remained unsealed to prevent accumulation of gases (e.g., ethylene), and were positioned in an upright 45° position, and incubated at 22° C. with a light intensity of […] m-2 s-1 provided by white fluorescent tubes and under a photoperiod of 16 hours exposure to light/8 hours in the dark for 6-12 days. GR-24 treatments were conducted at concentrations ranging from 2.7×10^-6 to 13.5×10^-6 M. […] GR-24, ST-357 and ST-362 were initially dissolved in acetone to give a 4.5 mM, 10 μM and 10 μM solutions, respectively, which were then further diluted with double-distilled sterile water (DDW). […] In each of the experiments, non-treated roots were compared to the respective acetone control. Where no difference was observed between the various controls, non-treated roots are shown. Where differences were recorded between non-treated and acetone controls, the comparison was made between GR-24, ST-357 and ST-362-treated and acetone-treated roots. RNA was extracted from seedlings grown and treated as described in Example 1. Quantitative PCR was performed by amplifying fragments of genes of interest (Tables 6 & 7). Arabidopsis 15S ribosomal RNA (GenBank accession no. AT1G04270.1) served as the reference gene for the amount of RNA, and was amplified using specific primers (forward) [NT] and (reverse) [NT]. The experiment was performed in 5-6 biological replicates; each replicate included 8 plants, on which 3 technical repeats were performed. Means and standard error were determined from all biological replicates. Primers were designed using PrimerQuest software (Integrated DNA Technologies). RNA was extracted using Trizol (Invitrogen, Carlsbad, Calif., USA) using the manufacturer's protocol. 1 μg RNA was reverse-transcribed in a total volume of 20 μl using the Superscript First strand cDNA synthesis kit (Invitrogen). […] The expression of each target gene was normalized to the expression of GAPDH RNA and is presented as the ratio of the target gene to GAPDH RNA, expressed as 2-ΔCt, where Ct is the threshold cycle and ΔCt=[NT] […]

Candida oleophila = assay: Yeast cell culture growth (OD); assay type: cell-based; settings: 10 μM, apparent 8 hours after application
Method: Saccharomyces cerevisiae and Candida oleophila yeast cells were grown overnight in a reach nutrient media at 28° C., at 150 rpm. Following, they were diluted to 0.4 OD in low nutrient media (Lily) and were divided into 96 wells. The cells were treated with GR-24 or ST-362, at the indicated concentrations. Cell culture growth was monitored every hour for 17 hours, at 28° C., with gentle shake before each OD read. OD was determined using fluorometer. Statistical differences between curves were analyzed using compareGrowthCurves function from the Statistical Modeling package, statmod (http://bioinf.wehi.edu.au/software/compareCurves/), significance was determined once P≤0.05.

SMILES: CC1=CC(O/C=C2\Cc3c(n(C)c4cc(-c5cccs5)ccc34)C2=O)OC1=O (racemic) [MEB-55, (±) 2E-4-methyl-2-(4-methyl-5-oxo-2,5-dihydrofuran-2-yloxymethylene)-6-thiophen-2-yl-1,4-dihydro-2H-cyclopenta[b]indol-3-one]
- pAKT levels decrease (pAKT; DU145, 8 hours): 6 fold
- pAKT levels (pAKT; DU145, 24 hours): undetectable levels

SMILES: CC1=C[C@H](O/C=C2/C(=O)O[C@@H]3c4ccccc4C[C@H]23)OC1=O (relative stereo) [GR-24, (3aR*,8bS*,E)-3-(((R*)-4-methyl-5-oxo-2,5-dihydrofuran-2-yloxy)methylene)-3,3a,4,8b-tetrahydro-2H-indeno[1,2-b]furan-2-one]
- GRI gene expression induction (GRIM REAPER (GRI); 3 μM): 2.3 fold
- GRI transcription level versus controls (GRIM REAPER (GRI); WT seedlings, 3 μM): 33.008 ± 7.121
- GRI gene transcription (GRIM REAPER (GRI); max2-1 mutants): not induced
- GRI transcription level versus controls (GRIM REAPER (GRI); max2-1 seedlings, 3 μM): 0.214 ± 0.193

SMILES: CC1=CC(O/C=C2/C(=O)c3c(c4cc(-c5scc6c5OCCO6)ccc4n3C)C2C)OC1=O (stereo not shown) [ST-362, (2E)-2-[(2,5-dihydro-4-methyl-5-oxofuran-2-yloxy)methylene]-1,2-dihydro-7-(2,3-dihydrothieno[3,4-b][1,4]dioxin-7-yl)-1,4-dimethyl-cyclopenta[b]indole-3-(4H)-one]
- Cell culture growth (Candida oleophila): reduction of cell culture growth
